# Assay results reported in US8673888B2, “Depsipeptide for therapy of kidney cancer” (The United States of America, represented by the Secretary, …, priority 2002, dated 2014).
# Legend:
# [1] = system: human kidney tumor (RXF-631L); assay: Antitumor effect on human renal tumor xenograft (RXF-631L) in nude mice; assay type: in vivo, mouse; conditions: RXF-631L s.c. xenograft in nude mice; 3.2 and 1.8 mg/kg i.v. q4d×3; FIG. 1
# Procedure: A recommended amount of FR901228 was weighed, a solvent (10% HCO-60 (Nihon Surfactant Kogyo K.K./saline) was added and the mixture was ultrasonicated for dissolution. The positive control substance, Taxol, was dissolved in Cremophor EL (SIGMA/ethanol (1:1)) to a concentration of 24 mg/mL before test and preserved in refrigerator. When in use, a 9-fold amount of physiological saline was added to dilute the substance to 2.4 mg/mL (solvent component: 5% Cremophor EL-5% ethanol-90% saline).
# For the antitumor activity test of the drug, BALB/cANnNCrj-nu/nu mice (female, 6-week-old) were purchased from Charles River Japan (Yokohama, Japan), and after acclimation for more than 1 week, subjected to the test. The mice were reared in an SPF environment, where free access to water and feed was allowed. […]
# Fragments (3×3×3 mm) of RXF-631L tumor were subcutaneously implanted into the right flank of BALB/cANnNCrj-nu/nu mice. […] The tumor volume was calculated from the formula: tumor volume (mm^3)=½×L×W^2 where L and W represent the length and width of the tumor mass, respectively.
# The administration was started on the day the mice were grouped (Day 0). […] The liquid amount of administration was calculated based on the body weight measured on the day of administration (0.1 mL/10 g body weight).
# The tumor size (length, width) and body weight were measured twice a week from Day 0.
# [2] = system: clear cell renal carcinoma; assay: Antineoplastic response in a patient with clear cell renal carcinoma (RECIST criteria); assay type: in vivo, human
# Procedure: This patient was a person with a history of clear cell renal carcinoma that was diagnosed in 1996. The patient received a total of 10 doses of FR901228: FR901228 was administered at 9.10 mg/m^2 on day 1 and day 5 of the first cycle (21 days), 9.10 mg/m^2 on day 1 of the second cycle (21 days), 9.10 mg/m^2 on day 1 and day 5 of the third cycle (28 days), 9.10 mg/m^2 on day 1 of the fourth cycle (22 days), 12.70 mg/m^2 on day 1 of the fifth cycle (20 days), 17.8 mg/m^2 on day 1 of the sixth cycle (23 days), 17.8 mg/m^2 on day 1 of the seventh cycle (23 days) and 17.8 mg/m^2 on day 1 of the eighth cycle (21 days) by continuous infusion for 4 hours. The treatment effect was evaluated based on the RECIST criteria.
smiles,measurement,setting,value
C/C=C1\NC(=O)[C@H]2CSSCC/C=C/[C@H](CC(=O)N[C@H](C(C)C)C(=O)N2)OC(=O)[C@H](C(C)C)NC1=O [FR901228],growth of human kidney cancer in vivo (tumor size),[1],suppressed the growth
same,treatment effect (RECIST criteria),"[2]; one patient, 9.10 mg/m^2 by 4 h continuous infusion, after the first two cycles",partial response
same,treatment effect (RECIST criteria),"[2]; same patient, 10 doses of 9.10-17.8 mg/m^2, after cycle 8",disease progression
